Earlier results, collected in US20110245183A1, “Topical Uses of Szeto-Schiller Peptides” (priority 2010, published 2011).
Where no end group is shown, it is not given here. [ ]: non-standard residue; d: D form. Dmt = Cc1cc(O)cc(C)c1C[C@H](N)C(=O)O

Assays:
[1] = test system: Parkinson's Disease (PD) or Amyotrophic Lateral Sclerosis (ALS); conditions: mice studies
isolated mitochondria = conditions: MPP+ (1-methyl-4-phenylpyridium)

Substance | effectiveness in the treatment of Parkinson's Disease (PD) or Amyotrophic Lateral Sclerosis (ALS) [1] | MPP+-induced inhibition of ATP production (isolated mitochondria) | MPP+-induced inhibition of oxygen consumption (isolated mitochondria) | MPP+-induced mitochondrial swelling (isolated mitochondria) | inhibiting LDL oxidation (LDL)
Phe-D-Arg-Phe-Lys-NH2 (F[dR]FK-NH2; N-terminus assumed; SMILES N=C(N)NCCC[C@@H](NC(=O)[C@@H](N)Cc1ccccc1)C(=O)N[C@@H](Cc1ccccc1)C(=O)N[C@@H](CCCCN)C(N)=O) [SS-20] | may be effective | prevented | prevented | prevented | 
D-Arg-2′,6′-Dmt-Lys-Phe-NH2 ([dR][Dmt]KF-NH2) [SS-31] | may be effective | prevented | prevented | prevented | as effective as SS-02
